Reference: patent US20250026769A1, “PAPD5 INHIBITORS AND METHODS OF USE THEREOF” (The Children's Medical Center Corporation, priority 2021, published 2025)

Target: T1, rPAPD5 (Homo sapiens, UniProt Q8NDF8)
T1 construct: made in house
Experiment: differential scanning fluorimetry (DSF) binding and stabilization of rPAPD5
Conditions: 1 μM test compound (Table 2a); read-out: ΔTm at 1 μM
Method: Binding and stabilization of rPAPD5 by test compounds was determined using differential scanning fluorimetry (DSF). DSF assays were performed to determine protein melting temperature using an indicator dye SYPRO orange (Thermo Fisher Scientific, S6651) diluted 1:5000 in […] of buffer containing […], […] (Jena Biosciences), 25 mM Tris-HCl, 5 mM MgCl2, 50 mM KCl. […] DMSO was used as a negative control. Each curve was an average of three measurements and Thermal Shift software (Thermo Fisher Scientific, 4466038) was used for analysis. […] The change in melting temperature (ΔTm) is in reference to the DMSO control. Referring to Table 2, “+” refers to ΔTm values below 1° C., “++” refers to ΔTm values from 1 to 5° C., and “+++” refers to ΔTm values above 5° C.

T1 sequence (Q8NDF8 68-698 isoform Q8NDF8-5 limits assumed): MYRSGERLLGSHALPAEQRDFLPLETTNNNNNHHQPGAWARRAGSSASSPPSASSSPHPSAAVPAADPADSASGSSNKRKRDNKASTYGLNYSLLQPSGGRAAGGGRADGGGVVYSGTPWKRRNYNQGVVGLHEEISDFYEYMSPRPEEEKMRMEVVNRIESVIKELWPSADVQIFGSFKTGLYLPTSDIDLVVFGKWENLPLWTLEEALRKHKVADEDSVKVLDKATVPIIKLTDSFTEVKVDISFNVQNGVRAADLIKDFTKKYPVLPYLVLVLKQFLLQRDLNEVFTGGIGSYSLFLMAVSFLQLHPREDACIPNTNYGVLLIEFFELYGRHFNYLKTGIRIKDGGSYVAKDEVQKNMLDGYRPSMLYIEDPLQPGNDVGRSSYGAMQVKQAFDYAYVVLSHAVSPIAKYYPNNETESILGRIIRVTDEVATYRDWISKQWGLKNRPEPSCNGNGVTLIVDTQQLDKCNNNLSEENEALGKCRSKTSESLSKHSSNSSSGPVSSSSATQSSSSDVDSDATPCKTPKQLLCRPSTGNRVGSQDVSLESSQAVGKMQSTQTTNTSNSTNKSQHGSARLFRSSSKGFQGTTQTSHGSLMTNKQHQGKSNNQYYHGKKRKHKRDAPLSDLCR

| ΔTm at 1 µM [°C] | Structure (SMILES) |
| --- | --- |
| > 5 | O=C(O)c1cc(Cl)ccc1Nc1c(-c2nnn[nH]2)cnc2ccc(Cl)cc12 [Compound 359A, 5-chloro-2-[[6-chloro-3-(1H-tetrazol-5-yl)-4-quinolyl]amino]benzoic acid] |

Same assay, conditions: 10 μM test compound (Table 2a); read-out: ΔTm at 10 μM

| ΔTm at 10 µM [°C] | Structure (SMILES) |
| --- | --- |
| > 5 | O=C(O)c1cc(Cl)ccc1Nc1c(-c2nnn[nH]2)cnc2ccc(Cl)cc12 [Compound 359A, 5-chloro-2-[[6-chloro-3-(1H-tetrazol-5-yl)-4-quinolyl]amino]benzoic acid] |

Same assay, conditions: 100 μM test compound; shift vs DMSO control; read-out: ΔTm at 100 μM

| ΔTm at 100 µM [°C] | Structure (SMILES) |
| --- | --- |
| > 5 | O=C(O)c1ccccc1Nc1c(S(=O)(=O)N2CCOCC2)cnc2ccc(C(F)(F)F)cc12 [Compound 234A, 2-[[3-morpholinosulfonyl-6-(trifluoromethyl)-4-quinolyl]amino]benzoic acid] |
| 1 to 5 | O=C(O)c1ccccc1Nc1c(S(=O)(=O)N2CCOCC2)cnc2ccc(-c3ccc(N4CCOCC4)nc3)cc12 [Compound 163A, 2-[[6-(6-morpholino-3-pyridyl)-3-morpholinosulfonyl-4-quinolyl]amino]benzoic acid] |
| 1 to 5 | O=C(O)c1ccccc1Nc1c(NC2CCNCC2)cnc2ccc(Cl)cc12 [Compound 186A, 2-[[6-chloro-3-(4-piperidylamino)-4-quinolyl]amino]benzoic acid] |
| > 5 | O=C(O)c1ccccc1Nc1c(Nc2cncnc2)cnc2ccc(Cl)cc12 [Compound 191A, 2-[[6-chloro-3-(pyrimidin-5-ylamino)-4-quinolyl]amino]benzoic acid] |
| > 5 | O=C(O)c1ccccc1Nc1c(S(=O)(=O)N2CCOCC2)cnc2ccc(Nc3ncco3)cc12 [Compound 241A, 2-[[3-morpholinosulfonyl-6-(oxazol-2-ylamino)-4-quinolyl]amino]benzoic acid] |
| 1 to 5 | O=C(O)c1ccccc1Nc1c(S(=O)(=O)N2CCOCC2)cnc2ccc(-c3cnccc3C(F)(F)F)cc12 [Compound 168A, 2-[[3-morpholinosulfonyl-6-[4-(trifluoromethyl)-3-pyridyl]-4-quinolyl]amino]benzoic acid] |
| > 5 | O=C(O)c1ccccc1Nc1c(S(=O)(=O)N2CC(CO)(CCl)C2)cnc2ccc(Cl)cc12 [Compound 135A-BP] |
| > 5 | N#Cc1ccc(Nc2c(S(=O)(=O)N3CCOCC3)cnc3ccc(Cl)cc23)c(C(=O)O)c1 [Compound 338A, 2-[(6-chloro-3-morpholinosulfonyl-4-quinolyl)amino]-5-cyano-benzoic acid] |
| 1 to 5 | COc1cccc(C(=O)O)c1Nc1c(S(=O)(=O)N2CCOCC2)cnc2ccc(Cl)cc12 [Compound 284A, 2-[(6-chloro-3-morpholinosulfonyl-4-quinolyl)amino]-3-methoxy-benzoic acid] |
| 1 to 5 | O=C(O)c1ccccc1Nc1c(S(=O)(=O)N2CCOCC2)cnc2ccc(NC3CCNCC3)cc12 [Compound 239A, 2-[[3-morpholinosulfonyl-6-(4-piperidylamino)-4-quinolyl]amino]benzoic acid] |
| > 5 | O=C(O)c1ccccc1Nc1c(S(=O)(=O)N2CCC(F)(F)CC2)cnc2ccc(OC(F)(F)F)cc12 [Compound 132A] |
| > 5 | COc1ccc(Nc2c(-c3ncco3)cnc3ccc(Cl)cc23)c(C(=O)O)c1 [Compound 302A, 2-[(6-chloro-3-oxazol-2-yl-4-quinolyl)amino]-5-methoxy-benzoic acid] |
| 1 to 5 | CC(C)c1ccc(Nc2c(S(=O)(=O)N3CCOCC3)cnc3ccc(Cl)cc23)c(C(=O)O)c1 [Compound 320A, 2-[(6-chloro-3-morpholinosulfonyl-4-quinolyl)amino]-5-isopropyl-benzoic acid] |
| 1 to 5 | O=C(O)c1c(Nc2c(S(=O)(=O)N3CCOCC3)cnc3ccc(Cl)cc23)cccc1-c1ccn[nH]1 [Compound 91A-Cl] |
| > 5 | O=C(O)c1ccccc1Nc1c(-c2ccncc2)cnc2ccc(Cl)cc12 [Compound 209A, 2-[[6-chloro-3-(4-pyridyl)-4-quinolyl]amino]benzoic acid] |
| > 5 | NS(=O)(=O)c1ccc2ncc(S(=O)(=O)N3CCOCC3)c(Nc3ccccc3C(=O)O)c2c1 [Compound 249A, 2-[(3-morpholinosulfonyl-6-sulfamoyl-4-quinolyl)amino]benzoic acid] |
| < 1 | Cc1cc(OC(C)C)ncc1-c1ccc2ncc(S(=O)(=O)N3CCOCC3)c(Nc3ccccc3C(=O)O)c2c1 [Compound 161A, 2-[[6-(6-isopropoxy-4-methyl-3-pyridyl)-3-morpholinosulfonyl-4-quinolyl]amino] benzoic acid] |
| 1 to 5 | O=C(O)c1ccccc1Nc1c(S(=O)(=O)N2CCOCC2)cnc2ccc(Nc3ccc4[nH]cnc4c3)cc12 [Compound 247A, 2-[[6-(1H-benzimidazol-5-ylamino)-3-morpholinosulfonyl-4-quinolyl]amino]benzoic acid] |
| > 5 | O=C(O)c1ccccc1Nc1c(C2CCS(=O)(=O)CC2)c[n+]([O-])c2ccc(Cl)cc12 [Compound 323A, 2-[[6-chloro-3-(1,1-dioxothian-4-yl)-1-oxido-quinolin-1-ium-4-yl]amino]benzoic acid] |
| < 1 | CNC(=O)c1ccc(-c2ccc3ncc(S(=O)(=O)N4CCOCC4)c(Nc4ccccc4C(=O)O)c3c2)cn1 [Compound 167A, 2-[[6-[6-(methylcarbamoyl)-3-pyridyl]-3-morpholinosulfonyl-4-quinolyl]amino]benzoic acid] |

| ΔTm at 100 µM [°C] | Structure (SMILES) |
| --- | --- |
| 1 to 5 | N#Cc1csc(-c2ccc3ncc(S(=O)(=O)N4CCOCC4)c(Nc4ccccc4C(=O)O)c3c2)c1 [Compound 139A] |
| 1 to 5 | O=C(O)c1ccccc1Nc1c(S(=O)(=O)N2CCOCC2)cnc2ccc(-c3cnn4cccnc34)cc12 [Compound 149A] |
| 1 to 5 | N#Cc1ccc(-c2ccc3ncc(S(=O)(=O)N4CCOCC4)c(Nc4ccccc4C(=O)O)c3c2)cn1 [Compound 164A, 2-[[6-(6-cyano-3-pyridyl)-3-morpholinosulfonyl-4-quinolyl]amino]benzoic acid] |
| > 5 | CCc1ccc(Nc2c(S(=O)(=O)N3CCOCC3)cnc3ccc(Cl)cc23)c(C(=O)O)c1 [Compound 318A, 2-[(6-chloro-3-morpholinosulfony 1-4-quinolyl)amino]-5-ethyl-benzoic acid] |
| > 5 | Cc1c[nH]c2ncc(-c3ccc4ncc(S(=O)(=O)N5CCOCC5)c(Nc5ccccc5C(=O)O)c4c3)cc12 [Compound 156A, 2-[[6-(3-methyl-TH-pyrrolo[2,3-b]pyridin-5-yl)-3-morpholinosulfonyl-4-quinolyl]amino]benzoic acid] |
| > 5 | O=C(O)c1cc(Cl)ccc1Nc1c(-c2nnn[nH]2)cnc2ccc(Cl)cc12 [Compound 359A, 5-chloro-2-[[6-chloro-3-(1H-tetrazol-5-yl)-4-quinolyl]amino]benzoic acid] |
| > 5 | O=C(O)c1ccc(F)cc1Nc1c(S(=O)(=O)N2CCOCC2)cnc2ccc(Cl)cc12 [Compound 275A, 2-[(6-chloro-3-morpholinosulfonyl-4-quinolyl)amino]-4-fluoro-benzoic acid] |
| > 5 | O=C(O)c1ccccc1Nc1c(C2CCS(=O)(=O)CC2)cnc2ccc(Cl)cc12 [Compound 208A, 2-[[6-chloro-3-(1,1-dioxothian-4-yl)-4-quinolyl]amino]benzoic acid] |
| < 1 | O=C(O)c1c(Nc2c(S(=O)(=O)N3CCOCC3)cnc3ccc(Cl)cc23)cccc1-c1ncco1 [Compound 261A, 2-[(6-chloro-3-morpholinosulfonyl-4-quinolyl)amino]-6-oxazol-2-yl-benzoic acid] |
| > 5 | O=C(O)c1ccccc1Nc1c(NC2CCOCC2)cnc2ccc(Cl)cc12 [Compound 184A, 2-[[6-chloro-3-(tetrahydropyran-4-ylamino)-4-quinolyl]amino]benzoic acid] |
| > 5 | O=C(O)c1ccccc1Nc1c(C2CCNCC2)cnc2ccc(Cl)cc12 [Compound 206A, 2-[[6-chloro-3-(4-piperidyl)-4-quinolyl]amino]benzoic acid] |
| 1 to 5 | CCCc1ccc(Nc2c(S(=O)(=O)N3CCOCC3)cnc3ccc(Cl)cc23)c(C(=O)O)c1 [Compound 319A, 2-[(6-chloro-3-morpholinosulfonyl-4-quinolyl)amino]-5-propyl-benzoic acid] |
| > 5 | CC(=O)c1ccc(-c2ccc3ncc(S(=O)(=O)N4CCOCC4)c(Nc4ccccc4C(=O)O)c3c2)s1 [Compound 138A] |
| 1 to 5 | O=C(O)c1ccccc1Nc1c(S(=O)(=O)N2CCOCC2)cnc2ccc(-c3cnc4[nH]ncc4c3)cc12 [Compound 155A, 2-[[3-morpholinosulfonyl-6-(1H-pyrazolo[3,4-b]pyridin-5-yl)-4-quinolyl]amino]benzoic acid] |
| > 5 | O=C(O)c1ccccc1Nc1c(S(=O)(=O)NC2CCOCC2)cnc2ccc(Cl)cc12 [Compound 216A, 2-[[6-chloro-3-(tetrahydropyran-4-ylsulfamoyl)-4-quinolyl]amino]benzoic acid] |
| 1 to 5 | O=C(O)c1ccccc1Nc1c(S(=O)(=O)N2CCOCC2)cnc2ccc(-c3cnn(C4CCOC4)c3)cc12 (stereo not drawn) [Compound 148A-R] |
| > 5 | O=C(O)c1ccccc1Nc1c(S(=O)(=O)N2CC3(COC3)C2)cnc2ccc(Cl)cc12 [Compound 135A] |
| > 5 | O=C(O)c1ccccc1Nc1c(S(=O)(=O)N2CCOCC2)cnc2ccc(OC(F)F)cc12 [Compound 236A, 2-[[6-(difluoromethoxy)-3-morpholinosulfonyl-4-quinolyl]amino]benzoic acid] |
| 1 to 5 | O=C(O)c1ccccc1Nc1c(S(=O)(=O)N2CCOCC2)cnc2ccc(-c3ccc(S(=O)(=O)N4CCOCC4)cc3)cc12 [Compound 172A, 2-[[3-morpholinosulfonyl-6-(4-morpholinosulfonylphenyl)-4-quinolyl]amino]benzoic acid] |

Same assay, conditions: read-out: ΔTm at 100 μM

| Structure (SMILES) | ΔTm at 100 µM [°C] |
| --- | --- |
| O=C(O)c1ccccc1Sc1c(S(=O)(=O)N2CCOCC2)cnc2ccc(Cl)cc12 [Compound 328A] | 1 to 5 |
